Experimental data as given in ChEMBL document CHEMBL4699595, “Ganoweberianones A and B, Antimalarial Lanostane Dimers from Cultivated Fruiting Bodies of the Basidiomycete Ganoderma weberianum” (J Nat Prod, 2020).
Activity calls are given as the source filed them. The calls are words filed in the database; no cut-off is given here.

Key:
[1] = Selectivity index, ratio of IC50 for cytotoxicity against African green monkey Vero cells to IC50 for antimalarial activity against multi drug-resistant Plasmodium falciparum K1 infected in human erythrocytes; assay type: toxicity, cell-based; conditions: read-out: Ratio IC50
Plasmodium falciparum = experiment: Antimalarial activity against multi drug-resistant Plasmodium falciparum K1 infected in human erythrocytes assessed as reduction in parasite growth preincubated for 24 hrs followed by [3H]hypoxanthine addition and measured after 18 hrs by scintillation counting method; assay type: functional, organism-based; conditions: K1, Erythrocyte
Vero = experiment: Cytotoxicity against African green monkey Vero cells assessed as reduction in cell viability by tryphan blue exclusion method; assay type: cell-based; conditions: Chlorocebus sabaeus
[2] = tested on: Mycobacterium tuberculosis; experiment: Antimycobacterial activity against Mycobacterium tuberculosis H37Ra ATCC 25177; assay type: functional, organism-based

SMILES	selectivity ratio [1]	IC50 (Plasmodium falciparum) [µM]	IC50 (Vero) [µM]	Activity [2]
C[C@H](CC[C@H](OC(=O)[C@@H](C)CC(=O)C[C@@H](C)[C@H]1C[C@@H](O)[C@@]2(C)C3=C(C(=O)C[C@]12C)[C@@]1(C)CCC(=O)C(C)(C)[C@@H]1CC3=O)[C@](C)(O)CO)[C@H]1CC[C@@]2(C)C3=CC[C@H]4C(C)(C)C(=O)CC[C@]4(C)C3=CC[C@]12C	4.2	0.05	0.21	inactive
C[C@H](CC[C@H](OC(=O)[C@@H](C)CC(=O)C[C@@H](C)[C@H]1C[C@@H](O)[C@@]2(C)C3=C(C(=O)C[C@]12C)[C@@]1(C)CC[C@@H](O)C(C)(C)[C@@H]1CC3=O)[C@](C)(O)CO)[C@H]1CC[C@@]2(C)C3=CC[C@H]4C(C)(C)C(=O)CC[C@]4(C)C3=CC[C@]12C	2.2	0.46	10	inactive
C[C@H](CC(=O)C[C@H](C)C(=O)O)[C@H]1C[C@@H](O)[C@@]2(C)C3=C(C(=O)C[C@]12C)[C@@]1(C)CC[C@@H](O)C(C)(C)[C@@H]1CC3=O	–	≥ 17	≥ 87	inactive
C[C@H](CC(=O)C[C@H](C)C(=O)O)[C@H]1C[C@@H](O)[C@@]2(C)C3=C(C(=O)C[C@]12C)[C@@]1(C)CCC(=O)[C@@](C)(CO)[C@@H]1CC3=O	–	≥ 17	≥ 87	inactive
C[C@H](CC(=O)C[C@H](C)C(=O)O)[C@H]1C[C@@H](O)[C@@]2(C)C3=C(C(=O)C[C@]12C)[C@@]1(C)CCC(=O)C(C)(C)[C@@H]1CC3=O	–	≥ 17	≥ 87	inactive
C[C@H](CC(=O)C[C@H](C)C(=O)O)[C@H]1C[C@@H](O)[C@@]2(C)C3=C(C(=O)[C@@H](O)[C@]12C)[C@@]1(C)CCC(=O)C(C)(C)[C@@H]1CC3=O	–	≥ 17	≥ 87	inactive
CC(=O)O[C@@H]1C(=O)C2=C(C(=O)C[C@H]3C(C)(C)C(=O)CC[C@]23C)[C@]2(C)[C@H](O)C[C@H]([C@H](C)CC(=O)C[C@H](C)C(=O)O)[C@@]12C	–	≥ 17	≥ 87	inactive
